Test results as given in patent publication US20240383856A1 (Zedira GmbH, priority 2021, published 2024).
pIC50: −log10 of the molar value.

Key:
[1] = biological target: T1, recombinant human transglutaminase 2 (Homo sapiens, UniProt P21980); assay: Transglutaminase assay (DCC-assay): incorporation of dansylcadaverine into dimethylcasein; assay type: biochemical; conditions: recombinant human TG2 10 nM; dansylcadaverine incorporation into dimethylcasein; read-out: IC50 TG2
T1 construct: purchased Zedira T022
T1 sequence (P21980 1-687): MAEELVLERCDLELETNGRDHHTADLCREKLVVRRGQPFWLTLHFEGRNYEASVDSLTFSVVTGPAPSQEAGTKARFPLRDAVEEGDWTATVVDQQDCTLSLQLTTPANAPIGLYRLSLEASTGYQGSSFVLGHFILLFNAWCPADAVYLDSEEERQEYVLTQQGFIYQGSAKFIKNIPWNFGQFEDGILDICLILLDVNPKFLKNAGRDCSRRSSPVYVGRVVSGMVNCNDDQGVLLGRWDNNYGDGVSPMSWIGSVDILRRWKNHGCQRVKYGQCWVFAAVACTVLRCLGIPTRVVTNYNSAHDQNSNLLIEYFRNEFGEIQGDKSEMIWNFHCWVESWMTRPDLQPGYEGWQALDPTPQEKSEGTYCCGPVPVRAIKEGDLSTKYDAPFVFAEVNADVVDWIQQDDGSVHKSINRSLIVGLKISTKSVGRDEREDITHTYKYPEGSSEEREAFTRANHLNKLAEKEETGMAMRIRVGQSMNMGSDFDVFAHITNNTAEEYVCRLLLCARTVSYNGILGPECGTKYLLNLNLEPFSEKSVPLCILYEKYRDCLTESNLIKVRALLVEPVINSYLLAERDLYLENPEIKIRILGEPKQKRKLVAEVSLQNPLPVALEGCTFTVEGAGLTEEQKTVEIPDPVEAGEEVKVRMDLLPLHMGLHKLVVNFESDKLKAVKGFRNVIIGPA
Outline: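 IC50 is the inhibitor level that blocks 50% of initial activity. Activity is the fluorescence slope (λex 330, λem 500 nm) between 20 and 30 min of a 37 °C run, relative to a 2% DMSO control. The enzyme is recombinant human tissue transglutaminase, 10 nM final, tested against a 1:2 inhibitor dilution series in a pH 8.0 mix with 10 mM CaCl2, 10 mM glutathione, 16.7 µM dansylcadaverine and 4 µM N,N-dimethylcasein.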

[2] = Caco-2 permeability assay (CacoReady kit); assay type: in vitro ADME; conditions: human, Caco-2, Caco-2 barrier, CacoReady kit; above 1×10^−6 cm/s classified as permeable
Outline: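 Compounds are tested on pre-formed Caco-2 barriers supplied as a ready-to-use kit, following the kit protocol, and the Papp value is derived to estimate intestinal absorption.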

[3] = logD by shake flask method (octanol / PBS pH 7.4, HPLC); assay type: physicochemical; conditions: octanol / PBS pH 7.4, shake flask
Outline: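 LogD obtained by HPLC measurement of how the compound distributes between PBS (pH 7.4) and octanol in a shake-flask experiment.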

| Compound | pIC50 [1] | Papp [2] [×10⁻⁶ cm/s] | logD [3] |
| --- | --- | --- | --- |
| CNC(=O)C(=O)CC[C@H](NC(=O)c1cc2ccc(N(C)C)cc2o1)C(=O)Nc1cccn(CC(=O)NC23CC(C2)C3)c1=O [II-190, (S)-N1-(1-(2-(bicyclo[1.1.1]pentan-1-ylamino)-2-oxoethyl)-2-oxo-1,2-dihydropyridin-3-yl)-2-(6-(dimethylamino)benzofuran-2-carboxamido)-N6-methyl-5-oxohexanediamide] | 5.60 to 6.40 | < 1 | < 1 |
| CNC(=O)C(=O)CC[C@H](NC(=O)c1cn[nH]n1)C(=O)Nc1cccn(CC(=O)NC2C3CC4CC(C3)CC2C4)c1=O (stereo partly drawn) [II-131, (S)-N1-(1-(2-(2-adamantylamino)-2-oxoethyl)-2-oxo-1,2-dihydropyridin-3-yl)-N6-methyl-5-oxo-2-(2H-1,2,3-triazole-4-carboxamido) hexanediamide] | 6.40 to 7.40 | < 1 | < 1 |
| CNC(=O)C(=O)CC[C@H](NC(=O)[C@H]1CCNC1)C(=O)Nc1cccn(CC(=O)NC2C3CC4CC(C3)CC2C4)c1=O (stereo partly drawn) [II-55, (S)-N1-(1-(2-(2-adamantylamino)-2-oxoethyl)-2-oxo-1,2-dihydropyridin-3-yl)-N6-methyl-5-oxo-2-((S)-pyrrolidine-3-carboxamido)hexanediamide] | 6.40 to 7.40 | < 1 | < 1 |
| CNC(=O)C(=O)CC[C@H](NC(=O)c1cncn1C)C(=O)Nc1cccn(CC(=O)NC23CC4CC(C)(CC(C)(C4)C2)C3)c1=O [II-210, (S)-N1-(1-(2-(3,5-dimethyladamantane-1-amino)-2-oxoethyl)-2-oxo-1,2-dihydropyridin-3-yl)-N6-methyl-2-(1-methyl-1H-imidazole-5-carboxamido)-5-oxohexanediamide] | 6.40 to 7.40 | < 1 | 1 to 3 |
| CNC(=O)C(=O)CC[C@H](NC(=O)c1[nH]c2ccccc2c1C)C(=O)Nc1cccn(CC(=O)NC2C3CC4CC(C3)CC2C4)c1=O (stereo partly drawn) [II-11, (S)-N1-(1-(2-(2-adamantylamino)-2-oxoethyl)-2-oxo-1,2-dihydropyridin-3-yl)-N6-methyl-2-(3-methyl-1H-indole-2-carboxamido)-5-oxohexanediamide] | > 7.40 | 1 to 10 | 1 to 3 |
| CNC(=O)C(=O)CC[C@H](NC(=O)c1cnnn1C)C(=O)Nc1cccn(CC(=O)N[C@H]2C[C@H]3CC[C@]2(C)C3(C)C)c1=O [II-162, (S)-N1-methyl-5-(1-methyl-1H-1,2,3-triazole-5-carboxamido)-2-oxo-N6-(2-oxo-1-(2-oxo-2-((1R,2S,4R)-1,7,7-trimethylbicyclo[2.2.1]heptan-2-ylamino)ethyl)-1,2-dihydropyridin-3-yl)hexanediamide] | 6.40 to 7.40 | < 1 | < 1 |
| CNC(=O)C(=O)CC[C@H](NC(=O)c1cc(C#N)cn1C)C(=O)Nc1cccn(CCCC23CC4CC(CC(C4)C2)C3)c1=O [II-165] | 5.60 to 6.40 | 1 to 10 | 3 to 5 |
| CNC(=O)C(=O)CC[C@H](NC(=O)c1sc(C(F)(F)F)nc1C)C(=O)Nc1cccn(CC(=O)N[C@@H]2C[C@H]3CC[C@@H]2C3)c1=O [II-129, (2S)-N1-(1-(2-((1R,2R,4S)-bicyclo[2.2.1]heptan-2-ylamino)-2-oxoethyl)-2-oxo-1,2-dihydropyridin-3-yl)-N6-methyl-2-(4-methyl-2-(trifluoromethyl)thiazole-5-carboxamido)-5-oxohexanediamide] | 6.40 to 7.40 | < 1 | 1 to 3 |
| CNC(=O)C(=O)CC[C@H](NC(=O)c1ccc2c(c1)CCCN2)C(=O)Nc1cccn(CC(=O)NC23CCC(C2)C3)c1=O [II-185, (S)-N1-(1-(2-(bicyclo[2.1.1]hexan-1-ylamino)-2-oxoethyl)-2-oxo-1,2-dihydropyridin-3-yl)-N6-methyl-5-oxo-2-(1,2,3,4-tetrahydroquinoline-6-carboxamido)hexanediamide] | 5.60 to 6.40 | < 1 | < 1 |
| C=CCNC(=O)C(=O)CC[C@H](NC(=O)c1cc2ccccc2o1)C(=O)Nc1cccn(CC(=O)NC2C3CC4CC(C3)CC2C4)c1=O (stereo partly drawn) [II-119, (S)-N1-allyl-5-(benzofuran-2-carboxamido)-N6-(1-(2-(2-adamantylamino)-2-oxoethyl)-2-oxo-1,2-dihydropyridin-3-yl)-2-oxohexanediamide] | 6.40 to 7.40 | 1 to 10 | 3 to 5 |
| CNC(=O)C(=O)CC[C@H](NC(=O)c1cc2c(Br)cccc2o1)C(=O)Nc1cccn(CC(=O)NC2C3CC4CC(C3)CC2C4)c1=O (stereo partly drawn) [II-5, (S)-2-(4-bromobenzofuran-2-carboxamido)-N1-(1-(2-(2-adamantylamino)-2-oxoethyl)-2-oxo-1,2-dihydropyridin-3-yl)-N6-methyl-5-oxohexanediamide] | > 7.40 | 1 to 10 | 3 to 5 |
| CNC(=O)C(=O)CC[C@H](NC(=O)c1oc2ccccc2c1C)C(=O)Nc1cccn(CC(=O)NC2(C(=O)OC)C3CC4CC(C3)CC2C4)c1=O (stereo partly drawn) [II-74, (S)-N1-(1-(2-(2-methyladamantane-2-carboxylate-2-amino)-2-oxoethyl)-2-oxo-1,2-dihydropyridin-3-yl)-N6-methyl-2-(3-methylbenzofuran-2-carboxamido)-5-oxohexanediamide] | 5.60 to 6.40 | < 1 | 1 to 3 |
| CNC(=O)C(=O)CC[C@H](NC(=O)c1ncns1)C(=O)Nc1cccn(CC(=O)NC23CC(C2)C3)c1=O [II-199, (S)-N1-(1-(2-(bicyclo[1.1.1]pentan-1-ylamino)-2-oxoethyl)-2-oxo-1,2-dihydropyridin-3-yl)-N6-methyl-5-oxo-2-(1,2,4-thiadiazole-5-carboxamido)hexanediamide] | 6.40 to 7.40 | < 1 | < 1 |
| CNC(=O)C(=O)CC[C@H](NC(=O)c1nncs1)C(=O)Nc1cccn(CC(=O)NC23CC(C2)C3)c1=O [II-200, (S)-N1-(1-(2-(bicyclo[1.1.1]pentan-1-ylamino)-2-oxoethyl)-2-oxo-1,2-dihydropyridin-3-yl)-N6-methyl-5-oxo-2-(1,3,4-thiadiazole-2-carboxamido)hexanediamide] | 6.40 to 7.40 | < 1 | < 1 |
| CNC(=O)C(=O)CC[C@H](NC(=O)c1oc2ccccc2c1C)C(=O)Nc1cccn(CC(=O)N[C@@H]2C[C@@H]3C[C@H]([C@H]2C)C3(C)C)c1=O [II-100, (S)-N1-methyl-5-(3-methylbenzofuran-2-carboxamido)-2-oxo-N6-(2-oxo-1-(2-oxo-2-((1R,2R,3R,5S)-2,6,6-trimethylbicyclo[3.1.1]heptan-3-ylamino)ethyl)-1,2-dihydropyridin-3-yl)hexanediamide] | 6.40 to 7.40 | 1 to 10 | 3 to 5 |
| CNC(=O)C(=O)CC[C@H](NC(=O)c1nc(Br)sc1Br)C(=O)Nc1cccn(CC(=O)NC2C3CC4CC(C3)CC2C4)c1=O (stereo partly drawn) [II-33, (S)-2-(2,5-dibromothiazole-4-carboxamido)-N1-(1-(2-(2-adamantylamino)-2-oxoethyl)-2-oxo-1,2-dihydropyridin-3-yl)-N6-methyl-5-oxohexanediamide] | 6.40 to 7.40 | > 10 | 1 to 3 |
| CNC(=O)C(=O)CC[C@H](NC(=O)c1cncc([N+](=O)[O-])c1)C(=O)Nc1cccn(CC(=O)NC2C3CC4CC(C3)CC2C4)c1=O (stereo partly drawn) [II-63, (S)-N1-(1-(2-(2-adamantylamino)-2-oxoethyl)-2-oxo-1,2-dihydropyridin-3-yl)-N6-methyl-2-(5-nitronicotinamido)-5-oxohexanediamide] | > 7.40 | < 1 | 1 to 3 |
